Results: patent publication US6914045B2, “Glycopeptide antibiotics” (Wyeth Holdings Corporation, priority 2001, dated 2005)
Converted amounts (≈) assume the structure as drawn.

Key:
Test in all cases: in vitro antibacterial evaluation, MIC by broth dilution
Format in all cases: cell-based
Escherichia coli = details: 18 hours at 35° C.
Streptococcus sp. = details: broth dilution, 18 hours at 35° C.
Outline: (§1)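 Following National Committee for Clinical Laboratory Standards recommendations (M7-A2), susceptibility was measured by dilution in Muller-Hinton II […]. Bacteria were seeded at 5×10^5 CFU/mL against compound concentrations from 64 down to 0.06 μg/mL.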

Staphylococcus sp. = details: broth dilution, 18 hours at 35° C.
Outline: as §1

Enterococcus sp. = details: broth dilution, 18 hours at 35° C.
Outline: as §1

CC(c1ccccc1)C1NC(=O)CNC(=O)C(CO)NC(=O)C(CC2CNC(=N)N2C2OC(CO)C(O)C(O)C2O)NC(=O)C(CC2CNC(=N)N2)NC(=O)C(Cc2ccc(OC3OC(CO)C(OC4OC(CO)C(O)C(O)C4OCc4ccc(OCc5ccccc5)cc4)C(O)C3O)cc2)NC1=O (stereo not shown) [Example 246c]
MIC Escherichia coli (ATCC 25922) (Escherichia coli): >128 µg/mL | MIC Escherichia coli (GC 4559) (Escherichia coli): >128 µg/mL | MIC Escherichia coli (GC 4560) (Escherichia coli): 32 µg/mL (≈ 21.9 µM) | MIC Streptococcus agalactiae (GC 4564) (Streptococcus sp.): >128 µg/mL | MIC Streptococcus pneumoniae (ATCC 6301) (Streptococcus sp.): 128 µg/mL (≈ 87.7 µM) | MIC Streptococcus pneumoniae (GC 1894) (Streptococcus sp.): 64 µg/mL (≈ 43.8 µM) | MIC Streptococcus pneumoniae (GC 4565) (Streptococcus sp.): 128 µg/mL (≈ 87.7 µM) | MIC Streptococcus pyogenes (GC 4563) (Streptococcus sp.): >128 µg/mL | MIC Streptococcus pneumoniae (ATCC 6301) (Streptococcus sp.; strain ATCC 6301): 128 µg/mL (≈ 87.7 µM) | MIC Streptococcus pneumoniae (GC 1894) (Streptococcus sp.; strain GC 1894): 64 µg/mL (≈ 43.8 µM) | MIC Streptococcus pyogenes (GC 4563) (Streptococcus sp.; strain GC 4563): >128 µg/mL | MIC Streptococcus agalactiae (GC 4564) (Streptococcus sp.; strain GC 4564): >128 µg/mL | MIC Streptococcus pneumoniae (GC 4565) (Streptococcus sp.; strain GC 4565): 128 µg/mL (≈ 87.7 µM) | MIC Coagulase Negative Staphylococcus (GC 4547) (Staphylococcus sp.): >128 µg/mL | MIC Coagulase Negative Staphylococcus (GC 4548) (Staphylococcus sp.): >128 µg/mL | MIC Coagulase Negative Staphylococcus (GC 4549) (Staphylococcus sp.): >128 µg/mL | MIC Coagulase Negative Staphylococcus (GC 4551) (Staphylococcus sp.): >128 µg/mL | MIC Coagulase Negative Staphylococcus (GC 6257) (Staphylococcus sp.): >128 µg/mL | MIC Staphylococcus aureus (ATCC 29213) (Staphylococcus sp.): >128 µg/mL | MIC Staphylococcus aureus (GC 1131) (Staphylococcus sp.): >128 µg/mL | MIC Staphylococcus aureus (GC 3051) (Staphylococcus sp.): >128 µg/mL | MIC Staphylococcus aureus (GC 3053) (Staphylococcus sp.): >128 µg/mL | MIC Staphylococcus aureus (GC 4541) (Staphylococcus sp.): >128 µg/mL | MIC Staphylococcus aureus (GC 4542) (Staphylococcus sp.): >128 µg/mL | MIC Staphylococcus aureus (GC 4544) (Staphylococcus sp.): >128 µg/mL | MIC Staphylococcus aureus (GC 4545) (Staphylococcus sp.): >128 µg/mL | MIC Staphylococcus aureus-SMITH (GC 4543) (Staphylococcus sp.): >128 µg/mL | MIC Staphylococcus haemolyticus (GC 4546) (Staphylococcus sp.): >128 µg/mL | MIC Staphylococcus aureus (ATCC 29213) (Staphylococcus sp.; strain ATCC 29213): >128 µg/mL | MIC Staphylococcus aureus (GC 1131) (Staphylococcus sp.; strain GC 1131): >128 µg/mL | MIC Staphylococcus aureus (GC 3051) (Staphylococcus sp.; strain GC 3051): >128 µg/mL | MIC Staphylococcus aureus (GC 3053) (Staphylococcus sp.; strain GC 3053): >128 µg/mL | MIC Staphylococcus aureus (GC 4541) (Staphylococcus sp.; strain GC 4541): >128 µg/mL | MIC Staphylococcus aureus (GC 4542) (Staphylococcus sp.; strain GC 4542): >128 µg/mL | MIC Staphylococcus aureus-SMITH (GC 4543) (Staphylococcus sp.; strain GC 4543): >128 µg/mL | MIC Staphylococcus aureus (GC 4544) (Staphylococcus sp.; strain GC 4544): >128 µg/mL | MIC Staphylococcus aureus (GC 4545) (Staphylococcus sp.; strain GC 4545): >128 µg/mL | MIC Staphylococcus haemolyticus (GC 4546) (Staphylococcus sp.; strain GC 4546): >128 µg/mL | MIC Coagulase Negative Staphylococcus (GC 4547) (Staphylococcus sp.; strain GC 4547): >128 µg/mL | MIC Coagulase Negative Staphylococcus (GC 4548) (Staphylococcus sp.; strain GC 4548): >128 µg/mL | MIC Coagulase Negative Staphylococcus (GC 4549) (Staphylococcus sp.; strain GC 4549): >128 µg/mL | MIC Coagulase Negative Staphylococcus (GC 4551) (Staphylococcus sp.; strain GC 4551): >128 µg/mL | MIC Coagulase Negative Staphylococcus (GC 6257) (Staphylococcus sp.; strain GC 6257): >128 µg/mL | MIC Enterococcus avium (GC 4558) (Enterococcus sp.): 64 µg/mL (≈ 43.8 µM) | MIC Enterococcus faecalis (ATCC 29212) (Enterococcus sp.): >128 µg/mL | MIC Enterococcus faecalis (GC 2242) (Enterococcus sp.): >128 µg/mL | MIC Enterococcus faecalis (GC 2691) (Enterococcus sp.): >128 µg/mL | MIC Enterococcus faecalis (GC 3059) (Enterococcus sp.): >128 µg/mL | MIC Enterococcus faecalis (GC 4552) (Enterococcus sp.): >128 µg/mL | MIC Enterococcus faecalis (GC 4553) (Enterococcus sp.): 128 µg/mL (≈ 87.7 µM) | MIC Enterococcus faecalis (GC 4554) (Enterococcus sp.): >128 µg/mL | MIC Enterococcus faecalis (GC 6189) (Enterococcus sp.): >128 µg/mL | MIC Enterococcus faecium (GC 2243) (Enterococcus sp.): >128 µg/mL | MIC Enterococcus faecium (GC 4556) (Enterococcus sp.): >128 µg/mL | MIC Enterococcus faecium (GC 4557) (Enterococcus sp.): 128 µg/mL (≈ 87.7 µM) | MIC Enterococcus faecalis (ATCC 29212) (Enterococcus sp.; strain ATCC 29212): >128 µg/mL | MIC Enterococcus faecalis (GC 2242) (Enterococcus sp.; strain GC 2242): >128 µg/mL | MIC Enterococcus faecium (GC 2243) (Enterococcus sp.; strain GC 2243): >128 µg/mL | MIC Enterococcus faecalis (GC 2691) (Enterococcus sp.; strain GC 2691): >128 µg/mL | MIC Enterococcus faecalis (GC 3059) (Enterococcus sp.; strain GC 3059): >128 µg/mL | MIC Enterococcus faecalis (GC 4552) (Enterococcus sp.; strain GC 4552): >128 µg/mL | MIC Enterococcus faecalis (GC 4553) (Enterococcus sp.; strain GC 4553): 128 µg/mL (≈ 87.7 µM) | MIC Enterococcus faecalis (GC 4554) (Enterococcus sp.; strain GC 4554): >128 µg/mL | MIC Enterococcus faecium (GC 4556) (Enterococcus sp.; strain GC 4556): >128 µg/mL | MIC Enterococcus faecium (GC 4557) (Enterococcus sp.; strain GC 4557): 128 µg/mL (≈ 87.7 µM) | MIC Enterococcus avium (GC 4558) (Enterococcus sp.; strain GC 4558): 64 µg/mL (≈ 43.8 µM) | MIC Enterococcus faecalis (GC 6189) (Enterococcus sp.; strain GC 6189): >128 µg/mL
